Test [1] has as its system Phospholipase A2 from Naja mossambica mossambica. Format: biochemical. Conditions: in the presence of PLA2 and EDTA, room temperature (FIG. 3A). How it is done:
(§1) Methodology: Mixed solutions of 20 nm JR2EC-functionalised gold nanoparticles and 100 nm JR2KC2-loaded liposomes were prepared in accordance with Example 1. Absorption spectra were measured for the solutions under various solution conditions, as discussed below.
(§2) Methodology: JR2KC2 loaded liposomes, carboxyfluorescein (CF)-loaded liposomes and JR2EC-functionalised gold nanoparticles were prepared as described in Example 1. A mixture of PLA2 and chlorpromazine was added to the suspensions of liposomes. The assay response was recorded spectroscopically (in the UV-visible range) after incubating various concentrations of chlorpromazine with PLA2 (7 nM), functionalized gold nanoparticles (0.1 nM) and liposomes (1.4 nM) for 10 minutes at 37° C. For JR2KC2-loaded liposomes, the assay response was measured spectroscopically (in the UV-visible range) by recording spectra in the range 400-800 nm with 2 minute intervals using a Perkin Elmer Lambda 25 Spectrophotometer, and then extracting Δλmax.
(§3) This value was obtained by fitting the data to the monophasic Hill equation: […]

The test system of test [2] is T1, Phospholipase A2 from Naja mossambica mossambica.
T1 construct: IC50; other: CF-loaded liposomes, PLA2 7 nM, 37° C; other: PLA2 7 nM, gold nanoparticles 0.1 nM, liposomes 1.4 nM, 10 minutes at 37° C., Hill fit of Δλmax; lag time
Format: biochemical. How it is done:
as §1, §2, §3

Test [3] addresses T1, Phospholipase A2 from Naja mossambica mossambica. Put plainly: traditional carboxyfluorescein (CF)-based fluorescence assay with CF-loaded liposomes. Format: biochemical. The conditions noted are these: PLA2 7 nM, 37° C. How it is done:
Carboxyfluorescein-loaded liposomes were prepared similarly, except that the rehydration solution was 50 mM CF, 20 mM phosphate, adjusted to pH 7 with NaOH. The untrapped dye was removed by filtration on a Sephadex G-25 column with PBS as eluent. The total lipid concentration in all samples was determined using the Stewart assay.^21
Methodology: Liposomes containing 50 mM of carboxyfluorescein were prepared as described in Example 1. The final lipid concentration in the sample was 30 μg/ml. The liposomes were incubated with solutions of PLA2 at a variety of concentrations for 30 minutes. Experiments were performed on a Perkin Elmer fluorimeter with an excitation wavelength of 490 nm and an emission wavelength of 520 nm. […]
as §2, with “A mixture of PLA2 and chlorpromazine was added to the suspensions of liposomes.” left out

For a further test, the system named is PLA2. The conditions noted are these: literature values; read-out: IC50 previously reported; cited from earlier work.

Read-outs that look alike come from different tables or passages of the source.

Usually IC50 stands for the concentration needed to halve the response being measured.

In the case of `O=C(O)CN(CCN(CC(=O)O)CC(=O)O)CC(=O)O` [EDTA, ethylenediaminetetraacetic acid], the “effect on PLA2-induced nanoparticle aggregation” value in test [1] is “prevented aggregation”.

Take `CN(C)CCCN1c2ccccc2Sc2ccc(Cl)cc21` [chlorpromazine]: in test [2] (10 μM inhibitor, 7 nM PLA2, about 5 minutes without the inhibitor), the lag time entry is reported as “approximately 15 minutes”. Moreover, the “concentration of active non-inhibited PLA2 relative to actual PLA2 concentration” value in test [2] (10 μM inhibitor, read from lag time (FIG. 12b)) is on record as “about half”. Besides, the IC50 in test [2] (PLA2 7 nM, gold nanoparticles 0.1 nM, liposomes 1.4 nM, 10 minutes at 37° C., Hill fit of Δλmax) is 6.5 µM; in test [3], 10 µM; with PLA2 it was 10 to 100 µM.

These data come from US9494524B2, “Assay for analytes based on aggregation” (priority 2010, dated 2016).
